Results published in patent US20050113286A1, “Methods for treating congestive heart failure” (priority 2002, published 2005).
Entries after “also recorded” stand apart in the source; their conditions may differ.

Columns and labels:
[1] = test system: patients with chronic decompensated HF; assay: FUSION I: safety and tolerability of serial outpatient nesiritide infusions; format: in vivo; settings: for Patients discontinued from the study before week 12 because of an AE, number / Patients discontinued from the study prematurely due to an AE, %: primarily worsening HF
Protocol: The objective of the FUSION I study was to assess the safety and tolerability of nesiritide when administered in an outpatient setting as serial parenteral infusions to patients with chronic decompensated HF who were at high risk for hospitalization and were receiving established usual therapy for HF. The study compared usual care with usual care plus nesiritide given as 1 of 2 dosing strategies. All patients were evaluated weekly and treated in established HF clinics.
In this multicenter, open-label, pilot study, patients were randomly assigned to 1 of 3 treatment groups in a 1:1:1 ratio: (1) usual care, as determined by the investigating physician; (2) usual care plus nesiritide 0.005 μg/kg/min given for 4 to 6 hours, preceded by a 1.0-μg/kg bolus; or (3) usual care plus nesiritide 0.01 μg/kg/min given for 4 to 6 hours, preceded by a 2.0-μg/kg bolus (FIG. 1). The study treatment period was 12 weeks with an additional 4 weeks of follow-up. Nesiritide (Natrecor®) was supplied by Scios Inc., Fremont, Calif. Informed consent was obtained from each patient prior to enrollment, and the Ethics Committee of each institution prospectively approved the study.
All patients, regardless of treatment assignment, were required to have weekly clinic visits in an established HF clinic. If the patient had been randomized to nesiritide, half of the protocol-specified nesiritide dose was administered on the first weekly visit to assess safety. The 0.005 μg/kg/min nesiritide group received a 0.5 μg/kg bolus followed by a 0.0025 μg/kg/min infusion; and the 0.01 μg/kg/min nesiritide group received a 1.0 μg/kg bolus followed by a 0.005 μg/kg/min infusion. At subsequent visits (starting with week 2), the dose was increased to the protocol-specified dose for that group.
Nesiritide was administered as an IV bolus immediately followed by a fixed-rate infusion for 4 to 6 hours, based on the investigators' discretion, for 12 consecutive weeks. Before each infusion, the investigator assessed the patient's hydration status and HF symptoms as per the protocol. The investigator could choose the infusion frequency from once every other week to twice weekly based on hydration status and HF symptoms.
The primary goal of this open-label study was to assess the safety and tolerability of different nesiritide doses administered as serial outpatient infusions. Safety and tolerability were measured through investigator reporting of adverse events (AEs), serious AEs, discontinuations of study infusions, laboratory assessments, and vital signs. An AE was defined as any new onset or worsening of any medical condition since study entry. A serious AE were those AEs, which lead to death, hospitalization, or prolonged hospitalization. The effect of nesiritide infusions on renal function was also monitored as a safety variable, with renal AEs defined as increased blood urea nitrogen (BUN) or serum creatinine levels (determined by investigator's discretion), onset of oliguria, or occurrence of acute renal failure. Clinical events were followed to further evaluate safety and tolerability.

[2] = test system: patients with chronic decompensated HF; assay: FUSION I: global clinical status, 7-point ordinal scale; format: in vivo, human; settings: for Investigators' assessment: Reported improvement from baseline (%): moderately or markedly improved; for Investigators' assessment: Mean change from baseline / Patients' assessment: Mean change from baseline: scale −3 to +3
Protocol: At weeks 4, 8, and 12, the change from baseline global clinical status was assessed by both the patient and the investigator; assessments were rated on a 7-point ordinal scale from markedly worse (−3) to markedly better (+3).^1l,12 In addition, patients' assessment of quality of life was measured at baseline and at weeks 4, 8, and 12 using the Minnesota Living With HF questionnaire. (Rector TS, Kubo SH, Cohn J N. Patients' self-assessment of their congestive heart failure. Part 2: Content, reliability and validity of a new measure, The Minnesota Living with Heart Failure Questionnaire. Heart Failure 1987;October/November:198-209.)

[3] = test system: patients with chronic decompensated HF; assay: FUSION I: use of IV inotropic agents during study visits; format: in vivo, human
Source text: Patients in all treatment groups were allowed to receive any long-term cardiac or noncardiac medications, including IV diuretics, according to investigator discretion. At each visit, the investigator ensured that optimal medical treatment regimens were established. Patients who were randomized to usual care only were allowed to receive positive inotropic agents (milrinone, dobutamine, or dopamine) only if the investigator believed that inotropic support was required to alleviate symptomatic HF and yield hemodynamic stability. Inotropic agents were not permitted in the nesiritide groups unless they were urgently required to prevent hospitalization. During hospitalization, there was no restriction on the use of inotropic agents or nesiritide, regardless of treatment group.

[4] = test system: acute decompensated heart failure; settings: compared with milrinone; cited from earlier work
[5] = 0.005 μg/kg/min, n = 72, 819 infusions
[6] = 0.01 μg/kg/min, n = 69, 826 infusions
[7] = all nesiritide patients, n = 141
[8] = all nesiritide patients, n = 141, 1645 infusions
[9] = week 4, both nesiritide groups, count in cell 125
[10] = week 12, 0.01 μg/kg/min, count in cell 51
[11] = all patients who received nesiritide

Nesiritide: a recombinant form of human B-type natriuretic peptide (BNP)
Patients with infusion stopped due to adverse event, % ([1]; 0.005 μg/kg/min, n = 72): 6%
Patients with infusion stopped due to adverse event, number ([1]; 0.005 μg/kg/min, n = 72): 4
Infusion completed, % of infusions [1, 5]: 99%
Infusion completed, number of infusions [1, 5]: 814
Infusions stopped due to adverse event, % [1, 5]: < 1%
Infusions stopped due to adverse event, number [1, 5]: 4
Patients discontinued from the study before week 12 because of an AE, number ([1]; 0.005 μg/kg/min): 7
Patients discontinued from the study prematurely due to an AE, % ([1]; 0.005 μg/kg/min): 10%
Patients with infusion stopped due to adverse event, % ([1]; 0.01 μg/kg/min, n = 69): 7%
Patients with infusion stopped due to adverse event, number ([1]; 0.01 μg/kg/min, n = 69): 5
Infusion completed, % of infusions [1, 6]: 99%
Infusion completed, number of infusions [1, 6]: 814
Infusions stopped due to adverse event, % [1, 6]: < 1%
Infusions stopped due to adverse event, number [1, 6]: 7
Patients discontinued from the study before week 12 because of an AE, number ([1]; 0.01 μg/kg/min): 2
Patients discontinued from the study prematurely due to an AE, % ([1]; 0.01 μg/kg/min): 3%
Deaths considered related to study medication ([1]; 12-week treatment period): in no case
Adverse cardiovascular or renal events compared with usual care ([1]; RAS≧4 cohort): not associated with an increase; also recorded: tended to have a lower incidence
Patients with infusion stopped due to adverse event, % [1, 7]: 6%
Patients with infusion stopped due to adverse event, number [1, 7]: 9
Infusion completed, % of infusions [1, 8]: 99%
Infusion completed, number of infusions [1, 8]: 1628
Infusions stopped due to adverse event, % [1, 8]: < 1%
Infusions stopped due to adverse event, number [1, 8]: 11
Infusion completed, number of infusions ([1]; all nesiritide patients, n = 141, 1645 infusions, listed as nesiritide): 1,628
Safety and tolerability of serial outpatient infusions ([1]; both doses, 12 weeks, outpatient setting): similarly well tolerated; also recorded: safe and well tolerated
Frequency of observed AEs compared with usual-care group ([1]; either nesiritide group, through 12 weeks, all patients): no increase
Cardiovascular AEs, including symptomatic hypotension, and renal AEs compared to usual-care group ([1]; nesiritide groups, all patients): not increased
Global clinical status, investigators' assessments, compared with usual-care group ([2]; 0.01-μg/kg/min group, p≦0.004 at all time points): significant improvement
Global clinical status, patients' assessments, among treatment groups ([2]; all treatment groups): no significant differences
Patients' assessment: Reported improvement from baseline (%) ([2]; week 4, 0.005 μg/kg/min, count in cell 62): 62 (50%)
Investigators' assessment: Reported improvement from baseline (%) ([2]; week 4, 0.005 μg/kg/min, count in cell 63): 63 (29%)
Investigators' assessment: Mean change from baseline ([2]; week 4, 0.005 μg/kg/min): 0.9 ± 1.28
Patients' assessment: Mean change from baseline ([2]; week 4, 0.005 μg/kg/min): 1.3 ± 1.33
Patients' assessment: Reported improvement from baseline (%) ([2]; week 4, 0.01 μg/kg/min, count in cell 63): 63 (51%)
Investigators' assessment: Reported improvement from baseline (%) ([2]; week 4, 0.01 μg/kg/min, count in cell 62): 62 (47%)
Patients' assessment: Mean change from baseline ([2]; week 4, 0.01 μg/kg/min): 1.4 ± 1.20
Investigators' assessment: Mean change from baseline ([2]; week 4, 0.01 μg/kg/min, p < 0.05 compared with usual care): 1.1 ± 1.28
Patients' assessment: Reported improvement from baseline (%) [2, 9]: 125 (50%)
Investigators' assessment: Reported improvement from baseline (%) [2, 9]: 125 (38%)
Patients' assessment: Mean change from baseline ([2]; week 4, both nesiritide groups): 1.4 ± 1.26
Investigators' assessment: Mean change from baseline ([2]; week 4, both nesiritide groups, p < 0.05 compared with usual care): 1.0 ± 1.28
Patients' assessment: Reported improvement from baseline (%) ([2]; week 8, 0.005 μg/kg/min, count in cell 53): 53 (72%)
Investigators' assessment: Reported improvement from baseline (%) ([2]; week 8, 0.005 μg/kg/min, count in cell 50): 50 (54%)
Patients' assessment: Mean change from baseline ([2]; week 8, 0.005 μg/kg/min): 1.7 ± 1.26
Investigators' assessment: Mean change from baseline ([2]; week 8, 0.005 μg/kg/min, p < 0.05 compared with usual care): 1.3 ± 1.35
Patients' assessment: Reported improvement from baseline (%) ([2]; week 8, 0.01 μg/kg/min, count in cell 56): 56 (68%)
Investigators' assessment: Reported improvement from baseline (%) ([2]; week 8, 0.01 μg/kg/min, count in cell 54): 54 (59%)
Patients' assessment: Mean change from baseline ([2]; week 8, 0.01 μg/kg/min): 1.8 ± 1.26
Investigators' assessment: Mean change from baseline ([2]; week 8, 0.01 μg/kg/min, p < 0.05 compared with usual care): 1.6 ± 1.19
Patients' assessment: Reported improvement from baseline (%) ([2]; week 8, both nesiritide groups, count in cell 109): 109 (70%)
Investigators' assessment: Reported improvement from baseline (%) ([2]; week 8, both nesiritide groups, count in cell 104): 104 (57%)
Patients' assessment: Mean change from baseline ([2]; week 8, both nesiritide groups): 1.8 ± 1.25
Investigators' assessment: Mean change from baseline ([2]; week 8, both nesiritide groups, p < 0.05 compared with usual care): 1.4 ± 1.27
Patients' assessment: Reported improvement from baseline (%) ([2]; week 12, 0.005 μg/kg/min, count in cell 54): 54 (76%)
Investigators' assessment: Reported improvement from baseline (%) ([2]; week 12, 0.005 μg/kg/min, count in cell 51): 51 (55%)
Patients' assessment: Mean change from baseline ([2]; week 12, 0.005 μg/kg/min): 1.9 ± 1.39
Investigators' assessment: Mean change from baseline ([2]; week 12, 0.005 μg/kg/min, p < 0.05 compared with usual care): 1.4 ± 1.31
Patients' assessment: Reported improvement from baseline (%) [2, 10]: 51 (55%)
Investigators' assessment: Reported improvement from baseline (%) [2, 10]: 51 (59%)
Patients' assessment: Mean change from baseline ([2]; week 12, 0.01 μg/kg/min): 1.7 ± 1.09
Investigators' assessment: Mean change from baseline ([2]; week 12, 0.01 μg/kg/min, p < 0.05 compared with usual care): 1.7 ± 1.16
Patients' assessment: Reported improvement from baseline (%) ([2]; week 12, both nesiritide groups, count in cell 105): 105 (66%)
Investigators' assessment: Reported improvement from baseline (%) ([2]; week 12, both nesiritide groups, count in cell 102): 102 (57%)
Patients' assessment: Mean change from baseline ([2]; week 12, both nesiritide groups): 1.8 ± 1.25
Investigators' assessment: Mean change from baseline ([2]; week 12, both nesiritide groups, p < 0.05 compared with usual care): 1.5 ± 1.24
Patients receiving IV inotropic agents during study visits through week 12, number ([3]; 0.005 μg/kg/min, n = 72): 0
Patients receiving IV inotropic agents during study visits through week 12, % ([3]; 0.01 μg/kg/min, n = 69): 3%
Patients receiving IV inotropic agents during study visits through week 12, number ([3]; 0.01 μg/kg/min, n = 69): 2
Patients who also received an inotropic agent during a study visit because of decompensated HF, % [3, 11]: < 2%
Patients who also received an inotropic agent during a study visit because of decompensated HF, number [3, 11]: 2
Length of stay [4]: shorter length of stay
Readmissions [4]: fewer readmissions
